# ChEMBL document CHEMBL3085775, “Design, diversity-oriented synthesis and structure activity relationship studies of quinolinyl heterocycles as antimycobacterial agents” (Eur J Med Chem, 2013)
# Legend:
# [1] = tested on: Mycolicibacterium smegmatis; assay: Antimycobacterial activity against Mycobacterium smegmatis MC2 155 ATCC 14468 after 32 hrs by turbidimetry; type: functional; details: MC2 155 ATCC 14468, 32 h
# A549 = assay: Cytotoxicity against human A549 cells after 48 hrs by MTT assay; type: cell-based; details: A549, 48 h
smiles,measurement,setting,value
Cc1nc2ccccc2cc1-c1cc[nH]n1,MIC50,[1],14.7 µg/mL
same,IC50,A549,138 µM
Cc1nc2ccccc2cc1C(=O)NN,MIC50,[1],> 50 µg/mL
same,IC50,A549,96.4 µM
Cc1nc2ccccc2cc1-c1ccnc(N)n1,MIC50,[1],> 50 µg/mL
same,IC50,A549,94.2 µM
Cc1nc2ccccc2cc1-c1csc(N)n1,MIC50,[1],> 50 µg/mL
same,IC50,A549,> 200 µM
Cc1nc2ccccc2cc1-c1cn2ccccc2n1,MIC50,[1],> 50 µg/mL
same,IC50,A549,118 µM
Cc1nc2ccccc2cc1-c1nnc(CCc2ccccc2)o1,MIC50,[1],35 µg/mL
same,IC50,A549,145 µM
COc1cc(OC)c(C2CC(c3cc4ccccc4nc3C)=NN2C(C)=O)c(OC)c1 (centres undefined),MIC50,[1],57.9 µg/mL
same,IC50,A549,171 µM
Cc1nc2ccccc2cc1-c1nnc(C(C)c2ccccc2)o1 (centres undefined),MIC90,[1],35.9 µg/mL
same,IC50,A549,165 µg/mL
Cc1ccc(-c2nnc(-c3cc4ccccc4nc3C)o2)cc1,MIC90,[1],35 µg/mL
same,IC50,A549,175 µg/mL
Cc1nc2ccccc2cc1-c1nnc(-c2cccc(Oc3ccccc3)c2)o1,MIC90,[1],> 70 µg/mL
same,IC50,A549,146 µg/mL
CCCCCc1nnc(-c2cc3ccccc3nc2C)o1,MIC90,[1],> 70 µg/mL
same,IC50,A549,72.2 µg/mL
Cc1nc2ccccc2cc1-c1nnc(-c2ccc(C(C)C)cc2)o1,MIC90,[1],41 µg/mL
same,IC50,A549,103 µg/mL
COc1ccc(OC)c(-c2nnc(-c3cc4ccccc4nc3C)o2)c1,MIC90,[1],29.2 µg/mL
same,IC50,A549,134 µg/mL
COc1cc(-c2nnc(-c3cc4ccccc4nc3C)o2)cc(OC)c1OC,MIC90,[1],61.9 µg/mL
same,IC50,A549,113 µg/mL
Cc1nc2ccccc2cc1-c1nnc(-c2ccccc2C(=O)O)o1,MIC90,[1],43.3 µg/mL
same,IC50,A549,106 µg/mL
Cc1nc2ccccc2cc1-c1nnc(-c2cccnc2)o1,MIC90,[1],22.7 µg/mL
same,IC50,A549,139 µg/mL
Cc1nc2ccccc2cc1-c1nnc(-c2ccc(F)c(C(F)(F)F)c2)o1,MIC90,[1],47.5 µg/mL
same,IC50,A549,93.3 µg/mL
Cc1nc2ccccc2cc1-c1nnc(-c2ccc(OC(F)(F)F)cc2)o1,MIC90,[1],> 70 µg/mL
same,IC50,A549,91.1 µg/mL
Cc1nc2ccccc2cc1-c1nnc(-c2coc3ccccc3c2=O)o1,MIC90,[1],16.8 µg/mL
same,IC50,A549,111 µg/mL
Cc1nc2ccccc2cc1-c1nnc(-c2cccs2)o1,MIC90,[1],39.7 µg/mL
same,IC50,A549,99.4 µg/mL
Cc1nc2ccccc2cc1-c1nnc(-c2cn(-c3ccccc3)nc2-c2ccccc2)o1,MIC90,[1],> 70 µg/mL
same,IC50,A549,> 200 µg/mL
CC(=O)N1N=C(c2cc3ccccc3nc2C)CC1c1ccc(C#N)cc1 (centres undefined),MIC90,[1],> 70 µg/mL
same,IC50,A549,> 200 µg/mL
CC(=O)N1N=C(c2cc3ccccc3nc2C)CC1c1ccc(N(C)C)cc1 (centres undefined),MIC90,[1],> 70 µg/mL
same,IC50,A549,110 µg/mL
COc1ccc(C2CC(c3cc4ccccc4nc3C)=NN2C(C)=O)cc1 (centres undefined),MIC90,[1],> 70 µg/mL
same,IC50,A549,116 µg/mL
COc1ccc(OC)c(C2CC(c3cc4ccccc4nc3C)=NN2C(C)=O)c1 (centres undefined),MIC90,[1],> 70 µg/mL
same,IC50,A549,111 µg/mL
COc1cc(C2CC(c3cc4ccccc4nc3C)=NN2C(C)=O)cc(OC)c1OC (centres undefined),MIC90,[1],52.1 µg/mL
same,IC50,A549,> 200 µg/mL
COc1ccc(C2CC(c3cc4ccccc4nc3C)=NN2C(C)=O)c(OC)c1OC (centres undefined),MIC90,[1],46.2 µg/mL
same,IC50,A549,86.5 µg/mL
COc1ccc(C2CC(c3cc4ccccc4nc3C)=NN2C(C)=O)cc1OC (centres undefined),MIC90,[1],> 70 µg/mL
same,IC50,A549,> 200 µg/mL
CC(=O)N1N=C(c2cc3ccccc3nc2C)CC1/C=C/c1ccccc1 (centres undefined),MIC90,[1],> 70 µg/mL
same,IC50,A549,93.3 µg/mL
CC(=O)N1N=C(c2cc3ccccc3nc2C)CC1c1ccc([N+](=O)[O-])cc1 (centres undefined),MIC90,[1],50.7 µg/mL
same,IC50,A549,> 200 µg/mL
CC(=O)N1N=C(c2cc3ccccc3nc2C)CC1c1cccc(Oc2nc(Cl)c(Cl)cc2Cl)c1 (centres undefined),MIC90,[1],64.9 µg/mL
same,IC50,A549,72.7 µg/mL
CC(=O)N1N=C(c2cc3ccccc3nc2C)CC1c1ccc(Oc2nc(Cl)c(Cl)cc2Cl)cc1 (centres undefined),MIC90,[1],> 70 µg/mL
same,IC50,A549,> 200 µg/mL
CCOc1c(F)c(F)c(C2CC(c3cc4ccccc4nc3C)=NN2C(C)=O)c(F)c1F (centres undefined),MIC90,[1],> 70 µg/mL
same,IC50,A549,115 µg/mL
CC(=O)N1N=C(c2cc3c(Cl)cccc3nc2C)CC1c1ccc(C)cc1 (centres undefined),MIC90,[1],> 70 µg/mL
same,IC50,A549,166 µg/mL
Cc1nc2ccccc2cc1C1=NN(c2ccccc2)C(c2ccc(Br)cc2)C1 (centres undefined),MIC90,[1],> 70 µg/mL
same,IC50,A549,93 µg/mL
COc1cc(C2CC(c3cc4ccccc4nc3C)=NN2c2ccccc2)cc(OC)c1OC (centres undefined),MIC90,[1],> 70 µg/mL
same,IC50,A549,> 200 µg/mL
COc1ccc(C2CC(c3cc4ccccc4nc3C)=NN2c2ccccc2)c(OC)c1OC (centres undefined),MIC90,[1],43.5 µg/mL
same,IC50,A549,143 µg/mL
Cc1cc(C)n(C(=O)c2cc3ccccc3nc2C)n1,MIC90,[1],24.1 µg/mL
same,IC50,A549,97.9 µg/mL
Cc1nc2ccccc2cc1C(=O)n1nc(C)c(C2CCCCO2)c1C (centres undefined),MIC90,[1],> 70 µg/mL
same,IC50,A549,143 µg/mL
CC(=O)n1ccc(-c2cc3ccccc3nc2C)n1,MIC90,[1],17.3 µg/mL
same,IC50,A549,87 µg/mL
NNC(=O)c1ccncc1 [ISONIAZID],MIC50,[1],12.1 µg/mL
same,MIC90,[1],11.8 µg/mL
CO[C@H]1/C=C/O[C@@]2(C)Oc3c(C)c(O)c4c(O)c(c(/C=N/N5CCN(C)CC5)c(O)c4c3C2=O)NC(=O)/C(C)=C\C=C\[C@H](C)[C@H](O)[C@@H](C)[C@@H](O)[C@@H](C)[C@H](OC(C)=O)[C@@H]1C [RIFAMPIN],MIC50,[1],2.08 µg/mL
same,MIC90,[1],2.15 µg/mL
